Values quoted from earlier work as cited in patent publication US9532875B2, “Combined space maintenance and bone regeneration system for the reconstruction of large osseous defects” (WILLIAM MARSH RICE UNIVERSITY, priority 2010, dated 2017).

Test system: susceptible species
Settings: reported

In the case of Colistin sulfate salt, the “minimum inhibitory concentrations (MICs)” value is listed as 0.5 to 5 µg/mL.
